In patent US6806249B2, “Perfume containing surfactant compositions having perfume burst when diluted” (Unilever Home & Personal Care USA, a division of Conopco, priority 2002, dated 2004):
Like-named read-outs stand apart in the source and are kept apart here. Marks after values point to notes of the source that are not given here. Blank lines part the entries; values can stand above or below the molecule they belong to.

What was measured:
[1] = Dilution behaviour of components of a twelve-component perfume mixture in 5 wt. % sodium laurate, normalized GC headspace (FIG. 9); type: physicochemical; conditions: component of perfume mixture in 5 wt. % sodium laurate
Procedure: A typical fully formulated perfume used in a commercial product, e.g., personal wash formulation, usually is a multi-component composition in which the properties of each perfume component can vary dramatically. A typical perfume mixture in a 5 wt. % sodium laurate formulation was tested for its “perfume burst” behaviour upon dilution. The PBI values of the components in this perfume mixture vary from a large negative number (e.g., benzyl acetate, PBI=−819; PEA, PBI=−200 in sodium laurate solution) to a large positive number (e.g., gamma-methyl-ionone, PBI=1,677 in sodium laurate solution). The dilution behaviour of each component in this perfume mixture is shown in FIG. 9 (the graph represents a normalized GC measurement so the amount of burst of each molecule is clearly indicated). In this perfume mixture of twelve components, the dilution behaviour of each component is different. Each component has a unique dilution curve (GC headspace vs. dilution factor) governed by the factors (hydrophobicity, volatility, etc) discussed previously. […] For those perfumes with a moderate positive PBI (e.g., limonene, PBI=12; p-cymene=12.2 in sodium laurate solution), the perfume headspaces increases 1-2 times upon dilution.

[2] = Critical micellization concentration (CMC) of surfactants; type: physicochemical; conditions: no reference given
Text: As noted, the perfume burst is affected not only by the perfume properties, but also by properties of the formulation in which the perfume is found. Thus, the number and type of surfactant micelles found in a surfactant solution also has an effect. […] The critical micellization concentration is defined as the surfactant concentration at which micelles begin to form from unassociated surfactant monomers (M. J. Rosen, Surfactants and Interfacial Phenomena, 2nd Ed., 1989). Conversely, in a surfactant with low critical micelle concentration (e.g., one where micelles do form easily or, stated differently, don't break apart as readily once formed), a perfume, being generally more hydrophobic, tends to stay in the surfactant more readily. As a result, the perfume will tend not to “burst” (increase perfume headspace) as readily and, to achieve more headspace, more dilution may be required. The CMC of the surfactant system also affects “perfume burst”. Thus, for example, a surfactant system of relatively low CMC (e.g., sodium lauryl ether sulfate, also known as SLES) lowers the PBI and can greatly reduce the expected “perfume burst” on dilution. By contrast, surfactant systems of relatively higher CMC (e.g., sodium laurate compared to SLES) would raise PBI and can thus increase “perfume burst” on dilution.

[3] = Fragrance burst in shower liquids with different sodium laurate concentrations (FIG. 6); type: physicochemical; conditions: 5% sodium laurate product compared with 10, 15 (and 20) wt.%
Procedure: Limonene (PBI=12.2) was tested in shower liquids containing sodium laurate at 5, 10, 15 and 20 wt.%, γ-Methyl lonone and menthone were tested in sodium laurate at 5, 10 and 15 wt.% (FIG. 6).

[4] = Fragrance burst in shower liquids with surfactants of different CMC (FIG. 8); type: physicochemical; conditions: 5% sodium laureth sulfate (CMC=0.0011 wt/wt) compared with 5% sodium laurate (CMC=0.005 wt/wt)
Procedure: Limonene and γ-Methyl lonone were tested in two different shower liquid samples. One product was formulated with 5% sodium laurate (CMC=0.005 wt/wt) and the second with 5% sodium laureth sulfate (CMC=0.0011 wt/wt) (FIG. 8).

[5] = 50° C.; cited from earlier work

perfume headspace behaviour upon dilution [1]: decrease upon dilution
Molecule: CC(=O)OCc1ccccc1 [Benzyl Acetate]

CMC [2]: 0.00032 wt./wt.
Molecule: CCCCCCCC(=O)NCCC[N+](C)(C)CC(=O)[O-] [Caprylamidopropyl betaine]

overall fragrance burst [4]: lower overall fragrance burst
Molecule: C=C(C)[C@H]1CC=C(C)CC1 [Limonene]
dilutions needed to reach maximum fragrance burst [3]: reached with fewer dilutions in the 5% soap product

Molecule: CC(C)[C@@H]1CC[C@@H](C)CC1=O [Menthone]
dilutions needed to reach maximum fragrance burst [3]: reached with fewer dilutions in the 5% soap product

overall fragrance burst [4]: lower overall fragrance burst | perfume headspace behaviour upon dilution [1]: as high as seven times
Molecule: CC(=O)/C(C)=C/C1C(C)=CCCC1(C)C (stereo not shown) [γ-methyl ionone]
dilutions needed to reach maximum fragrance burst [3]: reached with fewer dilutions in the 5% soap product

Molecule: Sodium laureth sulfonate (2EO)
CMC [5]: 0.0011*** wt./wt.

Molecule: Sodium laureth sulfonate (3EO)
CMC [5]: 0.00084*** wt./wt.
